Measurements published in patent US9481670B2, “Triazine compounds” (Sphaera Pharma PTE. Ltd., priority 2011, dated 2016).

Target: T1, PI3K alpha (Homo sapiens, UniProt P42336)
T1 construct: purchased Millipore Upstate
Experiment: P110 Alpha TR-FRET Assay (PI3K alpha kinase assay, HTRF Transcreener ADP Assay)
Assay type: biochemical
Conditions: PI3K (WT)
Procedure, shortened: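 HTRF Transcreener ADP read-out of ADP formed by PI3K (50 ng enzyme) in 50 mM HEPES pH 7.5, 5 mM MgCl2, 1 mM DTT, 30 μM Na3VO4. Compound preincubated with enzyme 20 min; reaction started with 10 μM ATP and 5 μM PIP2, run 20 min, then ADP-d2/anti-ADP cryptate detection for 1 h.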

T1 sequence (P42336 whole entry): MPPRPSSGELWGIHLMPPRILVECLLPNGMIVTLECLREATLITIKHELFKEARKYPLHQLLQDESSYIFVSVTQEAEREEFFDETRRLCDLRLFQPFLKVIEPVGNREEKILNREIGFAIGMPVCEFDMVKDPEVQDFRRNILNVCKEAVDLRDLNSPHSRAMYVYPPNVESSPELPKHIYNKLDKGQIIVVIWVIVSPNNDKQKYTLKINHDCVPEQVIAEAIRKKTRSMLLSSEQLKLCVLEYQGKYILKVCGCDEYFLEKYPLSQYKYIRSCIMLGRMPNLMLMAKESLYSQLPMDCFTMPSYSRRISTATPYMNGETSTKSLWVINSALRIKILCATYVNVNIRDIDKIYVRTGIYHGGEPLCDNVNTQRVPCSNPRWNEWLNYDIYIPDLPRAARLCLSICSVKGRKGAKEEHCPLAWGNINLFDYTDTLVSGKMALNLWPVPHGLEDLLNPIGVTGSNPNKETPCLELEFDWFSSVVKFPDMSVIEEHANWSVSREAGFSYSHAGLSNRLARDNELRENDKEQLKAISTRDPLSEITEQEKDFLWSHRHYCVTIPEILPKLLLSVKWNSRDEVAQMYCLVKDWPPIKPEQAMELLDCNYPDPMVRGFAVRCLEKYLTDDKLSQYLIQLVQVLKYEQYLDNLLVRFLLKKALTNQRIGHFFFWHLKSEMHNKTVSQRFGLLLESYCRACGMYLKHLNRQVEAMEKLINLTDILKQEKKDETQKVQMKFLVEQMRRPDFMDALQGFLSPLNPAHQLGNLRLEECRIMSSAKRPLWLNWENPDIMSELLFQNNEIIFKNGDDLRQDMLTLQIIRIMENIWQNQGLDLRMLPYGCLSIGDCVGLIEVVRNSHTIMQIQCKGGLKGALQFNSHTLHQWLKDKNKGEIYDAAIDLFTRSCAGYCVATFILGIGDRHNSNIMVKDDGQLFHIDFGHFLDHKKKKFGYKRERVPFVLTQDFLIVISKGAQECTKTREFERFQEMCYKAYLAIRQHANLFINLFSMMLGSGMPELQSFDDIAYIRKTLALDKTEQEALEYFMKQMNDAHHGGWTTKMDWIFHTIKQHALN
T1 sequence (P27986 whole entry partner): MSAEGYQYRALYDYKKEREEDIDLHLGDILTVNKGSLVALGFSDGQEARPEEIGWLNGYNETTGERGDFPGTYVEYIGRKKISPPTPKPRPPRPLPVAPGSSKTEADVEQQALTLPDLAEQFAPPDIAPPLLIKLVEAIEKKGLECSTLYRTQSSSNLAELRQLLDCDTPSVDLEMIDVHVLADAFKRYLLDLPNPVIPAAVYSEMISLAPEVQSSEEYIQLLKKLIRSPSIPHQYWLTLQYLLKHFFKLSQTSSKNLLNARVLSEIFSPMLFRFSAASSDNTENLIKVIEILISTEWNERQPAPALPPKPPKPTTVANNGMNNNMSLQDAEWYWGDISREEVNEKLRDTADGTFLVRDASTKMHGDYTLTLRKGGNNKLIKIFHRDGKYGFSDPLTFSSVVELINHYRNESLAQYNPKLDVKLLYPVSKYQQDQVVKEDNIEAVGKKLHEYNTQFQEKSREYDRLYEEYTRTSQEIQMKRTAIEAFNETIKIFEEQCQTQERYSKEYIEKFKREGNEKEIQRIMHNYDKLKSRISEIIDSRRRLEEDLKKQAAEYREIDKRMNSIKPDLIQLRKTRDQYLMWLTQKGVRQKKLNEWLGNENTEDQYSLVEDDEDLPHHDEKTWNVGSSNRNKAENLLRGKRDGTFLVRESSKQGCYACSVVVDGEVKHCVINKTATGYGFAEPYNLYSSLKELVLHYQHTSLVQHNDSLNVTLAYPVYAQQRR

Row | Compound | IC50 [µM]
1 | CN(C)C(=O)c1ccc(Oc2nc(-c3cccc4[nH]c(=O)[nH]c34)nc(N3CCOCC3)n2)cc1 [Compound 1034, N,N-dimethyl-4-14-{[4-5-(morpholin-4-yl)-6-1-(2-21-oxo-2,3-dihydro-1H-1,3-benzodiazol-4-yl)-1,3,5-triazin-2-yl]oxy}benzamide] | > 5
2 | O=C(O)CNc1nc(-c2cccc(NO)c2)nc(N2CCOCC2)n1 [Compound 1184, 2-((4-(3-(hydroxyamino)phenyl)-6-morpholino-1,3,5-triazin-2-yl)amino)acetic acid] | > 5
3 | CN1CCN(c2nc(Oc3ccc(C(=O)N(C)C)cc3)nc(-c3cccc4[nH]ncc34)n2)CC1 [Compound 1061, 4-9-{[4-1-(1H-indazol-4-yl)-6-5-(4-30-methylpiperazin-1-yl)-1,3,5-triazin-2-yl]oxy}-N,N-dimethylbenzamide] | > 5
4 | CC(Nc1nc(-c2cccc3[nH]ncc23)nc(N2CCOCC2)n1)C(N)=O (centres unmarked) [Compound 1234, 2-((4-(1H-indazol-4-yl)-6-morpholino-1,3,5-triazin-2-yl)amino)propanamide] | < 5
5 | NC(=O)C(Cc1ccccc1)Nc1nc(-c2cccc(O)c2)nc(N2CCOCC2)n1 (centres unmarked) [Compound 1090, 2-((4-(3-hydroxyphenyl)-6-morpholino-1,3,5-triazin-2-yl)amino)-3-phenylpropanamide] | < 5
6 | Oc1nc(-c2cccc3[nH]ncc23)nc(N2CCOCC2)n1 [Compound 1212, 4-1-(1H-indazol-4-yl)-6-5-(morpholin-4-yl)-1,3,5-triazin-2-ol] | < 5
7 | CN(C)C(=O)Cc1ccc(Oc2nc(-c3ccc(N)nc3)nc(N3CCOCC3)n2)cc1 [Compound 1017, 2-20-(4-9-{[4-1-(6-12-aminopyridin-3-yl)-6-5-(morpholin-4-yl)-1,3,5-triazin-2-yl]oxy}phenyl)-N,N-dimethylacetamide] | < 5
8 | Nc1ccc(-c2nc(SCc3ccccc3)nc(N3CCOCC3)n2)cn1 [Compound 1037, 5-(4-(benzylthio)-6-morpholino-1,3,5-triazin-2-yl)pyridin-2-amine] | < 5
9 | N-[(4E)-1-8-[4-1-(1-21-{4-24-[(4E)-4-37-(hydroxyimino)azepan-1-yl]-6-26-(morpholin-4-yl)-1,3,5-triazin-2-yl}-1H-indazol-4-yl)-6-5-(morpholin-4-yl)-1,3,5-triazin-2-yl]azepan-4-ylidene]hydroxylamine [Compound 1123] | < 5
10 | CN(C)C(=O)C(CCS(C)(=O)=O)Nc1nc(-c2cccc3[nH]ncc23)nc(N2CCOCC2)n1 (centres unmarked) [Compound 1210, 2-((4-(1H-indazol-4-yl)-6-morpholino-1,3,5-triazin-2-yl)amino)-N,N-dimethyl-4-(methylsulfonyl)butanamide] | < 5
11 | CN(C)C(=O)c1ccc(Oc2nc(NC3CCOCC3)nc(-c3cccc4[nH]ncc34)n2)cc1 [Compound 1057, 4-((4-(1H-indazol-4-yl)-6-((tetrahydro-2H-pyran-4-yl)amino)-1,3,5-triazin-2-yl)oxy)-N,N-dimethylbenzamide] | > 5
12 | CN(C)C(=O)c1sccc1Nc1nc(-c2cccc3[nH]ncc23)nc(N2CCOCC2)n1 [Compound 1132, 3-((4-(1H-indazol-4-yl)-6-morpholino-1,3,5-triazin-2-yl)amino)-N,N-dimethylthiophene-2-carboxamide] | < 5
13 | O=C(O)CNc1nc(-c2ccccc2)nc(N2CCOCC2)n1 [Compound 1203, 2-((4-morpholino-6-phenyl-1,3,5-triazin-2-yl)amino)acetic acid] | > 5
14 | CC(C)(CO)Nc1nc(-c2cccc3[nH]ncc23)nc(N2CCOCC2)n1 [Compound 1232, 2-((4-(1H-indazol-4-yl)-6-morpholino-1,3,5-triazin-2-yl)amino)-2-methylpropan-1-ol] | < 5
15 | CN(C)C(=O)[C@H]1CCCN1c1nc(-c2cccc3[nH]ncc23)nc(N2CCOCC2)n1 [Compound 1217, (2R)-1-7-[4-1-(1H-indazol-4-yl)-6-5-(morpholin-4-yl)-1,3,5-triazin-2-yl]-N,N-dimethylpyrrolidine-2-carboxamide] | < 5
16 | CN(C)C(=O)c1ccc(Oc2nc(-c3cncc(N)c3)nc(N3CCOCC3)n2)cc1 [Compound 1032, 4-14-{[4-1-(5-26-aminopyridin-3-yl)-6-5-(morpholin-4-yl)-1,3,5-triazin-2-yl]oxy}-N,N-dimethylbenzamide] | < 5

The remaining lines, values ahead:

Row | IC50 [µM] | Compound
17 | < 5 | CNC(=O)N1CCN(c2nc(-c3cccc4[nH]ncc34)nc(N3CCOCC3)n2)CC1 [Compound 1218, 4-7-[4-1-(1H-indazol-4-yl)-6-5-(morpholin-4-yl)-1,3,5-triazin-2-yl]-N-methylpiperazine-1-carboxamide]
18 | < 5 | CN(C)C(=O)N1CCC(Oc2nc(-c3cccc4[nH]ncc34)nc(N3CCOCC3)n2)C1 (centres unmarked) [Compound 1108, 3-14-{[4-1-(1H-indazol-4-yl)-6-5-(morpholin-4-yl)-1,3,5-triazin-2-yl]oxy}-N,N-dimethylpyrrolidine-1-carboxamide]
19 | > 5 | C[C@H](Nc1nc(-c2cccc(NS(C)(=O)=O)c2)nc(N2CCOCC2)n1)C(=O)N1CCN(S(C)(=O)=O)CC1 [Compound 1066, N-[3-16-(4-1-{[(2S)-1-(4-30-methanesulfonylpiperazin-1-yl)-1-oxopropan-2-yl]amino}-6-2-(morpholin-4-yl)-1,3,5-triazin-2-yl)phenyl]methanesulfonamide]
20 | > 5 | CS(=O)(=O)N1CCN(C(=O)CNc2nc(-c3ccc(F)nc3)nc(N3CCOCC3)n2)CC1 [Compound 1080, 2-((4-(6-fluoropyridin-3-yl)-6-morpholino-1,3,5-triazin-2-yl)amino)-1-(4-(methylsulfonyl)piperazin-1-yl)ethanone]
21 | < 5 | CS(=O)(=O)N1CCC(COc2nc(-c3cccc4[nH]ncc34)nc(N3CCOCC3)n2)CC1 [Compound 1096, 4-(4-(1H-indazol-4-yl)-6-((1-(methylsulfonyl)piperidin-4-yl)methoxy)-1,3,5-triazin-2-yl)morpholine]
22 | < 5 | CN(C)C(=O)c1ccc(Oc2nc(-c3ccc4[nH]ccc4c3)nc(N3CCOCC3)n2)cc1 [Compound 1052, 4-14-{[4-1-(1H-indol-5-yl)-6-5-(morpholin-4-yl)-1,3,5-triazin-2-yl]oxy}-N,N-dimethylbenzamide]
23 | > 5 | CN(C)C(=O)c1ccc(Oc2nc(-c3ccncc3)nc(-c3cccc4[nH]ncc34)n2)cc1 [Compound 1024, 4-9-{[4-1-(1H-indazol-4-yl)-6-5-(pyridin-4-yl)-1,3,5-triazin-2-yl]oxy}-N,N-dimethylbenzamide]
24 | < 5 | CN(C)C(=O)[C@H]1C[C@H](Oc2nc(-c3cccc4[nH]ncc34)nc(N3CCOCC3)n2)CN1 [Compound 1103, (2R,4S)-4-14-{[4-1-(1H-indazol-4-yl)-6-5-(morpholin-4-yl)-1,3,5-triazin-2-yl]oxy}-N,N-dimethylpyrrolidine-2-carboxamide]
25 | < 5 | CN(C)C(=O)c1ccc(Oc2nc(-c3cnc4[nH]ccc4c3)nc(N3CCOCC3)n2)cc1 [Compound 1041, N,N-dimethyl-4-8-{[4-5-(morpholin-4-yl)-6-1-{1H-pyrrolo[2,3-b]pyridin-5-yl}-1,3,5-triazin-2-yl]oxy}benzamide]
26 | < 5 | CN(C)C(=O)c1cccc(Nc2nc(-c3cccc4[nH]ncc34)nc(N3CCOCC3)n2)c1 [Compound 1190, 3-((4-(1H-indazol-4-yl)-6-morpholino-1,3,5-triazin-2-yl)amino)-N,N-dimethylbenzamide]
27 | < 5 | O=C1CCN(C(=O)c2cccc(Nc3nc(-c4cccc5[nH]ncc45)nc(N4CCOCC4)n3)c2)CCN1 [Compound 1117, 1-(3-((4-(1H-indazol-4-yl)-6-morpholino-1,3,5-triazin-2-yl)amino)benzoyl)-1,4-diazepan-5-one]
28 | < 5 | Nc1ncc(-c2nc(N3CCOCC3)nc(N3CCOCC3)n2)s1 [Compound 1042, 5-7-[4-3,6-5-bis(morpholin-4-yl)-1,3,5-triazin-2-yl]-1,3-thiazol-2-amine]
29 | < 5 | O=C1CCN(c2nc(-c3cccc4[nH]ncc34)nc(N3CCOCC3)n2)CCN1 [Compound 1206, 1-21-[4-1-(1H-indazol-4-yl)-6-5-(morpholin-4-yl)-1,3,5-triazin-2-yl]-1,4-diazepan-5-one]
30 | < 5 | CC(C)(C)OC(=O)N1CCC(NC(=O)c2cccc(Nc3nc(-c4cccc5[nH]ncc45)nc(N4CCOCC4)n3)c2)CC1 [Compound 1116, tert-butyl 4-(3-((4-(1H-indazol-4-yl)-6-morpholino-1,3,5-triazin-2-yl)amino)benzamido)piperidine-1-carboxylate]
31 | < 5 | CS(=O)(=O)N1CCN(C(=O)CNc2nc(-c3ccc(O)nc3)nc(N3CCOCC3)n2)CC1 [Compound 1074, 2-((4-(6-hydroxypyridin-3-yl)-6-morpholino-1,3,5-triazin-2-yl)amino)-1-(4-(methylsulfonyl)piperazin-1-yl)ethanone]
32 | < 5 | CN(C)C(=O)N1CC[C@H](COc2nc(-c3ccc(N)nc3)nc(N3CCOCC3)n2)C1 [Compound 1025, 3-21-({[4-3-(6-16-aminopyridin-3-yl)-6-5-(morpholin-4-yl)-1,3,5-triazin-2-yl]oxy}methyl)-N,N-dimethylpyrrolidine-1-carboxamide]
33 | < 5 | COC(=O)C1CCN(c2nc(-c3cccc4[nH]ncc34)nc(N3CCOCC3)n2)C1 (centres unmarked) [Compound 1207, methyl 1-12-[4-1-(1H-indazol-4-yl)-6-5-(morpholin-4-yl)-1,3,5-triazin-2-yl]pyrrolidine-3-carboxylate]
34 | < 5 | O=C(NC1CCNCC1)c1cccc(Nc2nc(-c3cccc4[nH]ncc34)nc(N3CCOCC3)n2)c1 [Compound 1157, 3-((4-(1H-indazol-4-yl)-6-morpholino-1,3,5-triazin-2-yl)amino)-N-(piperidin-4-yl)benzamide]
35 | > 5 | CS(=O)(=O)Nc1cccc(-c2nc(NCC(=O)O)nc(N3CCOCC3)n2)c1 [Compound 1146, 2-((4-(3-(methylsulfonamido)phenyl)-6-morpholino-1,3,5-triazin-2-yl)amino)acetic acid]
